Experimental data reported in ChEMBL document CHEMBL3507680, “University of Dundee, Gates Library screen for HepG2 cell viability”.

Assay: Human HepG2 cell viability assay in 384 well format
Assay type: toxicity, cell-based
Design: dose 125 nL, time 70.5 hour; cytotoxicity at 70.5 h: concentration not given beside the values
Conditions: HepG2 cells, read-out: Inhibition

Row | Compound | cytotoxicity at 70.5 h [%]
1 | CC(C)C(NC(=O)c1ccccc1)C(=O)N1CCC2(CC1)OCCO2 (stereo unspecified) | 17.2
2 | CCc1ccccc1CN1CC[C@@H](NC(=O)c2cccnc2)[C@H](O)C1 | 1.15
3 | Cn1cc(-c2nc(CN3CCN(c4nccs4)CC3)cs2)cn1 | -5.83
4 | Brc1cccnc1OC1CCNCC1 | 23.3
5 | CC(C)(C)n1ncc2c(=O)[nH]c(N3CCC4(CCCCC4)C3)nc21 | -2.75
6 | CN(C)[C@@H]1CN(Cc2ccccc2O)C[C@H]1c1cn(C)c2ccccc12 | 44.4
7 | CNS(=O)(=O)c1ccccc1N1CCN(C(C)C(N)=O)CC1 (stereo unspecified) | -3.93
8 | Fc1cccc(CN2CCC(c3noc(-c4cnccn4)n3)CC2)c1F | -0.815
9 | Cc1cnc(C(=O)N2Cc3cc(Cl)ccc3OC3(CCOCC3)C2)cn1 | 1.54
10 | N#Cc1ccc(N2CCCC(CO)(CCOc3ccccc3)C2)nc1 (stereo unspecified) | -6.22
11 | O=C(NCCNc1ncccn1)C1CCN(C(=O)c2ccoc2)CC1 | -3.53
12 | COCCN(CC1CCCN(C2Cc3ccccc3C2)C1)C(=O)CSC (stereo unspecified) | -2.79
13 | CCOCC1CN(S(C)(=O)=O)Cc2cnn(CC3CCOCC3)c21 (stereo unspecified) | -0.335
14 | Cc1cnn(CC(C)NCc2nc(-c3cccnc3)no2)c1 (stereo unspecified) | 3.38
15 | CN(C)C(=O)N1CC[C@@H](O)[C@@H]1Cc1cnn(C)c1 | -1.6
16 | CCCOC1CCCN(c2nc(CC)nc3c2cnn3C)C1 (stereo unspecified) | -10.7
17 | COC(=O)c1ccc(S(=O)(=O)NCC(C)(O)c2cccs2)cc1 (stereo unspecified) | -9.34
18 | CCOCCCNC(=O)c1cc(C(C)C)nc(N2CCCCCC2)n1 | 26.5
19 | CN(C)S(=O)(=O)c1ccc(CN2CCC(C(N)=O)CC2)o1 | -2.97
20 | COC(=O)[C@H](C)NC(=O)c1nc(C2CC2)n(-c2ccccc2Cl)n1 | -11.3
21 | CC(C)(C)OC(=O)N1CCCCC1C(=O)NCc1cc[nH]n1 (stereo unspecified) | -7.48
22 | Cc1ccccc1CC(=O)NCCNc1nccc(C(F)(F)F)n1 | -8.29
23 | CC(C)NC(=O)C1CCC2(CCNCC2)C1 (stereo unspecified) | -1.82

Row | Compound | cytotoxicity at 70.5 h [%]
24 | COc1nccnc1N1CCC2(CC1)C(=O)N(C)c1ccccc12 | -2.17
25 | Fc1ccccc1CN(CCCn1ccnc1)CC1CCOC1 (stereo unspecified) | 9.07
26 | O=C(NCCNc1ccc(C(F)(F)F)cn1)c1ccoc1 | -8.13
27 | Cc1nc[nH]c1CN1CCCN(c2nc3ccccc3s2)CC1 | -2.7
28 | CCOc1ccccc1C(=O)NCCC(O)c1ccoc1 (stereo unspecified) | 9.07
29 | COCCN1CCCCC12CC(=O)N(c1ccccc1OC)C2 (stereo unspecified) | -2.67
30 | O=C1NC(C(=O)NCc2cccnc2Oc2ccc(F)c(F)c2)CO1 (stereo unspecified) | -21.4
31 | Cc1cncc(C2CCN(C(=O)c3ccc(-n4cccn4)nc3)CC2)n1 | -2.8
32 | C[C@H](NS(C)(=O)=O)C(=O)NCc1cc(-c2ccco2)n(CC(F)(F)F)n1 | -4.57
33 | Cc1nc(C)c(CCNC(Cc2ccncc2)C(F)(F)F)s1 (stereo unspecified) | 2.53
34 | CC(NC(=O)NCCNc1cnccn1)c1cccs1 (stereo unspecified) | -6.24
35 | CC(C)c1nc2c(n1C)CCN(CC(=O)NCc1ccccn1)C2 | -0.491
36 | CC(=O)NCCNc1nccc(CCC(F)(F)F)n1 | -10.3
37 | COCCn1cnnc1Cn1ccnc1-c1ccccc1C | 1.73
38 | Cc1n[nH]c(C)c1CN1CC[C@@H]2[C@@H](CCC(=O)N2CCc2c[nH]cn2)C1 | 1.53
39 | O=C1CCSCC(C(=O)N2CCC(O)CC2)N1 (stereo unspecified) | -10.8
40 | Cc1cc(NCCN)nc(-c2ccccc2O)n1 | 35.9
41 | N#Cc1c(Cl)nsc1NCCN1CCOCC1 | -10.1
42 | CCNc1c(NC(=O)NC(C)C)c(=O)oc2ccccc12 | -8.94
43 | CCn1ncc(CN2CCc3nc(-c4cccnc4)nc(O)c3C2)c1C | 9.93
44 | COC(=O)[C@H]1CCCCN1C(=O)c1cccc(-n2cccn2)c1 | -4.76
45 | Cc1cnn(C2CN(CCOc3cccc(C#N)c3)C2)c1 | -5.43
46 | COCC1CCN(S(=O)(=O)N2C[C@@H](C)[C@](O)(C3CC3)C2)CC1 | -1.25
